Data on 15 compounds can be found in patent US8268996B2, “Compounds and compositions as cathepsin S inhibitors” (IRM LLC, priority 2004, dated 2012).

What all share (format): biochemical
One assay deals with Cathepsin L (Homo sapiens, UniProt P07711). Nature of the assay: Cathepsin L Assay. As to conditions: for Ki: pH5.5, 20 minutes incubation at room temperature, substrate 20 μM, fluorescence. Here is the method:
(§1) Kinetic measurements are performed in a total reaction volume of 30 μl in 384-well microtiter plates. […] Control reactions in the absence of inhibitor are performed in replicates of 24. The reactions are initiated by adding the substrate, acetyl-histidine-lysine-phenylalanine-lysine-amino […] coumarin, to a final concentration of 20 μM. The rate of substrate hydrolysis is measured by monitoring the increase in fluorescence at an excitation wavelength of 380 nm and an emission wavelength of 450 nm that results from cleavage of the aniline bond in the substrate by the enzyme. The apparent inhibition constants for the compounds are determined from the enzyme progress curves and are then used to calculate the inhibition constants for competitive inhibitors.

Another assay addresses Cathepsin S (Homo sapiens, UniProt P25774). In words: Cathepsin S Assay. Here is the method: as §1, with “acetyl-histidine-proline-valine-lysine-amino” for “acetyl-histidine-lysine-phenylalanine-lysine-amino”, “50” for “20”
The target of another assay is T1, Cathepsin K (Homo sapiens, UniProt P43235).
T1 sequence (P43235 115-329): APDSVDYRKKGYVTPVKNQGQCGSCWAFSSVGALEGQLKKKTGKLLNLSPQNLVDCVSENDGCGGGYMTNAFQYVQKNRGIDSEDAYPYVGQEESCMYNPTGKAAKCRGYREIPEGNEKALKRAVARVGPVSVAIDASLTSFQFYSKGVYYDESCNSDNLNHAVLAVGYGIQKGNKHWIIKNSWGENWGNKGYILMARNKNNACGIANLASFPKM
In words: Cathepsin K Assay. As to conditions: for Ki: pH5.5, 20 minutes incubation at room temperature, substrate 40 μM, fluorescence. Here is the method: as §1, with “acetyl-lysine-histidine-proline-lysine-amino” for “acetyl-histidine-lysine-phenylalanine-lysine-amino”, “40” for “20”

The target of the next assay is Cathepsin B (Homo sapiens, UniProt P07858). Nature of the assay: Cathepsin B Assay. As to conditions: for Ki: pH5.5, 20 minutes incubation at room temperature, substrate 10 μM, fluorescence. Here is the method:
as §1, with “acetyl-histidine-proline-valine-lysine-amino” for “acetyl-histidine-lysine-phenylalanine-lysine-amino”, “10” for “20”

Where [1] appears, read: ratio of isozyme inhibition constant to cathepsin S inhibition constant.

A value given as a limit tells only on which side of the number the result lay.

Cathepsin L, sequence (P07711 114-333, species assumed): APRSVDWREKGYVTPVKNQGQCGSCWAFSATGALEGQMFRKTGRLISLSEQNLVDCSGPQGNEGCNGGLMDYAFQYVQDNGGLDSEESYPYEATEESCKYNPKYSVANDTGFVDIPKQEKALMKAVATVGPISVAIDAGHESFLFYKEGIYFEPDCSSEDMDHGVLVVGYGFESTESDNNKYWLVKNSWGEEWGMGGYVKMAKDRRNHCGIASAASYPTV
Cathepsin S, sequence (P25774 115-331): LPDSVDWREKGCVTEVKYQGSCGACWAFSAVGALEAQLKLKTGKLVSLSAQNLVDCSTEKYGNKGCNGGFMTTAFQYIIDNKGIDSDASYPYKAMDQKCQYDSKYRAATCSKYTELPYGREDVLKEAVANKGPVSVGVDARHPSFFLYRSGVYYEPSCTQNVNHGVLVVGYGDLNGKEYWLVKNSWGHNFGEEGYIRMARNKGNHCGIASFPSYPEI

What is called Ki is a dissociation constant, usually derived from enzyme kinetics or from competition with a known ligand. Higher therefore signals lower affinity. By IC50 is commonly meant the concentration that gives 50% inhibition. Consider `O=C(N[C@H](C(=O)c1nc2ccccc2o1)C1CC1)O[C@@H](CC1CCCCC1)C(=O)N1CCOCC1` [Example 1, 2-cyclohexyl-(1S)-(morpholine-4-carbonyl)ethyl 2-(benzooxazol-2-yl)-(1S)-cyclopropyl-2-oxo-ethyl carbamate], for which the inhibition constant Ki at Cathepsin L was greater than 23.3 µM; on Cathepsin S, 0.0066 µM; on Cathepsin K, 5.16 µM; at Cathepsin B it was greater than 47.5 µM. The “selectivity for cathepsin S over cathepsin L” value at Cathepsin L (setting [1]) is listed as “at least 100 fold”. Moreover, at Cathepsin S, the half-maximal inhibitory concentration (IC50) came out at 0.0066 µM. In addition, at Cathepsin K (setting [1]), the “selectivity for cathepsin S over cathepsin K” value is listed as “at least 100 fold”. In addition, at Cathepsin B (setting [1]), the “selectivity for cathepsin S over cathepsin B” value is listed as “at least 100 fold”.
With `C[C@H](NC(=O)O[C@@H](CS(=O)(=O)Cc1ccccc1)C(=O)N1CCOCC1)C(=O)c1nc2ccccc2o1` [Example 2, 2-phenylmethanesulfonyl-(1R)-(morpholine-4-carbonyl)ethyl 2-(benzoxazol-2-yl)-(1S)-methyl-2-oxo-ethyl carbamate], the Ki at Cathepsin L is greater than 100 µM; at Cathepsin S, 0.488 µM; on Cathepsin K, greater than 100 µM; at Cathepsin B it was greater than 100 µM.
As for `O=C(N[C@H]1COCC1=O)O[C@@H](CC1CCCCC1)C(=O)N1CCOCC1` [Example 5, 2-cyclohexyl-(1S)-(morpholine-4-carbonyl)ethyl 4-oxo-tetrahydro-furan-(3S)-yl carbamate], the Ki at Cathepsin L was greater than 100 µM; on Cathepsin S, 0.892 µM; on Cathepsin K, greater than 30 µM; at Cathepsin B, greater than 100 µM.
As for `N#C[C@H](COCc1ccccc1Cl)NC(=O)O[C@@H](CC1CCCCC1)C(=O)N1CCOCC1` [Example 8, (1S)-cyclohexylmethyl-2-morpholin-4-yl-2-oxo-ethyl 2-(2-chloro-benzyloxy)-(1R)-cyano-ethyl carbamate], the inhibition constant Ki is greater than 22.6 µM at Cathepsin L, 0.0314 µM on Cathepsin S, 13.8 µM on Cathepsin K and greater than 30 µM on Cathepsin B.
The matching figures for `CCC[C@H](NC(=O)O[C@@H](CC1CCCCC1)C(=O)N1CCCC1)C(=O)c1nc2ccccc2o1` [Example 27, (1S)-cyclohexylmethyl-2-oxo-2-(pyrrolidin-1-yl)-ethyl(1S)-(benzoxazole-2-carbonyl)-butyl carbamate]: 2.03 µM, 0.0008 µM, 0.211 µM and 5.7 µM.
For `CC[C@H](NC(=O)O[C@@H](CC1CCCCC1)C(=O)N1CCOCC1)C(=O)c1nc2cccnc2o1` [Example 39, 2-cyclohexyl-(1S)-(morpholine-4-carbonyl)ethyl(1S)-(oxazolo[5,4-b]pyridine-2-carbonyl)-propyl carbamate], the Ki turned out to be 1.31 µM on Cathepsin L, 0.0004 µM at Cathepsin S, 0.26 µM at Cathepsin K and 5.22 µM at Cathepsin B.
Regarding `O=C(N[C@H](C(=O)c1nc2ccc(F)cc2o1)C1CC1)O[C@@H](CC1CCCCC1)C(=O)N1CCOCC1` [Example 40, 2-cyclohexyl-(1S)-(morpholine-4-carbonyl)ethyl(1S)-cyclopropyl-2-(6-fluoro-benzoxazol-2-yl)-2-oxo-ethyl carbamate], the Ki at Cathepsin L was 15.3 µM; at Cathepsin S it was 0.0021 µM; at Cathepsin K it was 2.13 µM; on Cathepsin B, greater than 30 µM.
For `CC[C@H](NC(=O)O[C@H](C(=O)N1CCOCC1)C1CCCCC1)C(=O)c1nc2ccc(F)cc2o1` [Example 42, (1S)-cyclohexyl-1-(morpholine-4-carbonyl)methyl(1S)-(6-fluoro-benzoxazole-2-carbonyl)-propyl carbamate], in that order: 9.5 µM, 0.0046 µM, 0.278 µM and 16.7 µM.
The matching figures for `CC[C@H](NC(=O)O[C@@H](CC1CCCCC1)C(=O)N(C)C)C(=O)c1nc2ccccc2o1` [Example 43, 2-cyclohexyl-(1S)-dimethylcarbamoyl-ethyl(1S)-(benzoxazole-2-carbonyl)-propyl carbamate]: 4.65 µM, 0.0036 µM, 0.25 µM and 16 µM.
For `CCC[C@H](NC(=O)O[C@@H](CC1CCCCC1)C(=O)N1CCOCC1)C(=O)c1nc2ccc(F)cc2o1` [Example 44, 2-cyclohexyl-(1S)-(morpholine-4-carbonyl)ethyl(1S)-(6-fluoro-benzoxazole-2-carbonyl)-butyl carbamate], in that order: 3.61 µM, 0.0005 µM, 0.483 µM and 9.7 µM.
Consider `CCC[C@H](NC(=O)O[C@H](C(=O)N1CCOCC1)C1CCCCC1)C(=O)c1nc2ccccc2o1` [Example 46, (1S)-cyclohexyl-1-(morpholine-4-carbonyl)methyl(1S)-(benzoxazole-2-carbonyl)-butyl carbamate], for which the Ki at Cathepsin L stood at 2.21 µM; on Cathepsin S, 0.0016 µM; at Cathepsin K, 0.113 µM; at Cathepsin B it was 4.04 µM.
The matching figures for `CC[C@H](NC(=O)O[C@@H](CC1CCCCC1)C(=O)N1CCOCC1)C(=O)c1nc2ccc(C)cc2o1` [Example 47, 2-cyclohexyl-(1S)-(morpholine-4-carbonyl)ethyl(1S)-(6-methyl-benzoxazole-2-carbonyl)-propyl carbamate]: 2.17 µM, 0.0011 µM, 0.205 µM and greater than 30 µM.
On to `CC[C@H](NC(=O)O[C@@H](CC1CCCCC1)C(=O)N1CCOCC1)C(=O)c1nc2cc(Cl)ccc2o1` [Example 48, 2-cyclohexyl-(1S)-(morpholine-4-carbonyl)ethyl(1S)-(5-chloro-benzoxazole-2-carbonyl)-propyl carbamate], for which the Ki came to 2.75 µM on Cathepsin L, 0.0028 µM at Cathepsin S, 0.481 µM at Cathepsin K and 1.88 µM at Cathepsin B.
For `CCC[C@H](NC(=O)O[C@@H](CC1CCCCC1)C(=O)N1CCOCC1)C(=O)c1nc2cc(F)ccc2o1` [Example 54, 2-cyclohexyl-(1S)-(morpholine-4-carbonyl)ethyl(1S)-(5-fluoro-benzoxazole-2-carbonyl)-butyl carbamate], in that order: 2.31 µM, 0.0018 µM, 0.482 µM and 4.36 µM.
The matching figures for `CC[C@H](NC(=O)O[C@@H](CC1CCCCC1)C(=O)N1CCCC1)C(=O)c1nc2ccc(F)cc2o1` [Example 55, (1S)-cyclohexylmethyl-2-oxo-2-(pyrrolidin-1-yl)-ethyl(1S)-(6-fluoro-benzoxazole-2-carbonyl)-propyl carbamate]: 3.97 µM, 0.0009 µM, 0.188 µM and 9.09 µM.
